Assay results: patent publication US6448289B1, “Method for repelling arthropods” (priority 2000, dated 2002)

Experiments:
[1] = system: German cockroaches (Blattella germanica); test: Repellency test against German cockroaches with impregnated filter paper triangular pillar; assay type: in vivo; conditions: 24 hours later, dosage 833 mg/m^2; for No. of cockroaches (German cockroaches in the triangular pillar): test repeated twice
Description: A triangular pillar (3 cm-equilateral triangle of opening, 6 cm in length) was prepared with filter paper, and the acetone solution (0.9 ml) prepared according to Production example 2 was impregnated with the triangular pillar uniformly and air-dried for 5 to 10 minutes.
In a 650 cc volume plastic cup, said triangular pillar was placed horizontally, German cockroaches (Blattella germanica, 5 males and 5 females) were placed in said plastic cup, covered with nylon gauze, and then observed the number of German cockroaches in the triangular pillar 24 hours later. The test was repeated twice.
Further, the same procedure was performed using a triangular pillar of filter paper impregnated acetone without active ingredient, and the number of German cockroaches in the triangular pillar 24 hours later was counted. […] [formula]
Furthermore, the same procedure was performed using acetone solution prepared according to Production example 2, provided that DEET or MGK874 was used in place of Compound [A] for comparison.

[2] = system: yellow fever mosquitoes (Aedes aegypti); test: Repellency test against yellow fever mosquitoes on treated chick abdomen; assay type: in vivo; conditions: dosage 3 g/m^2, ethanol solution on chick abdomen
Description: Fifty adult yellow fever mosquitoes (Aedes aegypti, approximately equal number of female and male) which were about 3 weeks old after emergence were released in a cage (22 cm×22 cm×30 cm, made of stainless steel and nylon gauge).
A chick whose abdominal feathers had been removed with haircutter was fixed on a wood board (7 cm×15 cm) having a hole of 2.5 cm×4 cm so that its abdominal skin was exposed. Next, the ethanol solution (90 μl) prepared according to Production example 1 was treated on the exposed area of the chick. The chick treated the solution on its abdomen was put on the cage, and the treated abdomen was exposed to the cage just after treating and after 3 hours from treating. After 1, 2 and 4 minutes from putting the chick, the number of yellow fever mosquitoes on the abdomen was counted and summed up. The test was repeated twice.
Further, the same procedure was performed using a chick treated ethanol without active ingredient on its abdomen, and the number of yellow fever mosquitoes on the abdomen was counted. […] [formula]
Furthermore, the same procedure was performed using ethanol solution (90 μl) prepared according to Production example 1, provided that DEET was used in place of Compound [A] for comparison.

## Cc1cc(O)c(C(=O)CCC(C)C)c(=O)o1 [Compound [A], 4-hydroxy-6-methyl-3-(4-methylpentanoyl)-2-pyrone]
[1]
  Repellency (%): 90%
  No. of cockroaches (German cockroaches in the triangular pillar): 2
[2]; After 3 hours
  No. of mosquitoes (sum of yellow fever mosquitoes on the abdomen of the chick after 1, 2 and 4 minutes): 0
  Repellency (%): 100%
[2]; Immediately after treating
  No. of mosquitoes (sum of yellow fever mosquitoes on the abdomen of the chick after 1, 2 and 4 minutes): 0
  Repellency (%): 100%

## CCN(CC)C(=O)c1cccc(C)c1 [DEET, N,N-diethyl-m-toluamide]
[1]
  Repellency (%): 0%
  No. of cockroaches (German cockroaches in the triangular pillar): 20
[2]; After 3 hours
  No. of mosquitoes (sum of yellow fever mosquitoes on the abdomen of the chick after 1, 2 and 4 minutes): 3
  Repellency (%): 96.5%
[2]; Immediately after treating
  No. of mosquitoes (sum of yellow fever mosquitoes on the abdomen of the chick after 1, 2 and 4 minutes): 0
  Repellency (%): 100%

## CCCCCCCCSCCO [MGK874, 2-(octylthio)ethanol]
[1]
  Repellency (%): 15%
  No. of cockroaches (German cockroaches in the triangular pillar): 17
